# According to the supplement of paper PMC12463676, “Small-molecule dissolution of stress granules by redox modulation benefits ALS models” (Nature Chemical Biology, 2025):
# Columns and labels:
# lipoamide = compound: NC(=O)CCCCC1CCSS1 [lipoamide]; assay: thermal stability z-score vs DMSO; higher = more thermally stabilized by treatment; details: HeLa, lipoamide concentration 100 µM
# Description: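 Cellular thermal proteome profiling in HeLa cells. Cells were treated with 100 µM lipoamide for 1 h, with or without 1 mM arsenate for a further 1 h, then heated to ten temperatures (37-66.3 °C), and soluble protein was quantified by TMT mass spectrometry relative to 0.1% DMSO controls. The thermal stability score (sum of log2 fold changes minus the abundance score) was transformed to a z-score; mean of n = 3 experiments.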
# potassium arsenate = compound: O=[As]([O-])(O)O.[K+] [potassium arsenate]; assay: as above; details: HeLa; arsenate concentration 1 mM
# Description: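 Cellular thermal proteome profiling in HeLa cells treated with 1 mM arsenate for 1 h (DMSO pretreatment), heated to ten temperatures (37-66.3 °C). Soluble protein was quantified by TMT mass spectrometry relative to DMSO controls; the thermal stability score was transformed to a z-score; mean of n = 3 experiments.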
# [1] = arsenate co-treatment: 1 mM arsenate 1 h
# 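Note: each temperature applied for 3 min, abundance score taken as mean log2 fold change at the two lowest temperatures, z-score obtained by mean subtraction and division by SD.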
# Chain of UniProt O15258 (O15258 whole entry): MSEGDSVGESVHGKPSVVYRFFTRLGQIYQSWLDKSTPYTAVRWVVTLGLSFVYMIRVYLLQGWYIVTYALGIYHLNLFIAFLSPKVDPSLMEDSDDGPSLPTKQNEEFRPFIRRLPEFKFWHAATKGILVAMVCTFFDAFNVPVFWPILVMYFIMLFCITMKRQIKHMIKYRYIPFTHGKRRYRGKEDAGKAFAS
# Chain of UniProt O75935 (O75935 whole entry): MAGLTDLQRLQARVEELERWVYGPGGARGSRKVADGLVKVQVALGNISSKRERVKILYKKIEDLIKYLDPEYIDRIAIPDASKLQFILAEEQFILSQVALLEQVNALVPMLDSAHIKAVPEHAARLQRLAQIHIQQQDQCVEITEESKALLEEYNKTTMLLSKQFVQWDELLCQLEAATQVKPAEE
# Chain of UniProt Q9BSJ5 (Q9BSJ5 whole entry): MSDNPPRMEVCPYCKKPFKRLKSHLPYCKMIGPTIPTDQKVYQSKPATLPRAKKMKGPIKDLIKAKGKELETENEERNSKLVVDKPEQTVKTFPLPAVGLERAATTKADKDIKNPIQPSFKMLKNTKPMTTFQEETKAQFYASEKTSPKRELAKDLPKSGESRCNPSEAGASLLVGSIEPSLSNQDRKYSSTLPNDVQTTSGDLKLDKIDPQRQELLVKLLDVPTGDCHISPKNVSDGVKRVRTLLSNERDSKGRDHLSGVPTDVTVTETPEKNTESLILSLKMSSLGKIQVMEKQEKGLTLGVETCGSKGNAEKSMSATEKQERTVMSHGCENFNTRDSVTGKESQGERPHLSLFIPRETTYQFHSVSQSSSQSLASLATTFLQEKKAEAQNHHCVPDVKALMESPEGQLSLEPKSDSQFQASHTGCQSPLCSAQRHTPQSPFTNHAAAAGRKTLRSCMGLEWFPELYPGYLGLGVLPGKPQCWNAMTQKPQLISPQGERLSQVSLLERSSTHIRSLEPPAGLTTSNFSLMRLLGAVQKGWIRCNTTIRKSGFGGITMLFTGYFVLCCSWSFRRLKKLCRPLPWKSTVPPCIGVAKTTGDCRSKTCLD
# Chain of UniProt O75351 (O75351 whole entry): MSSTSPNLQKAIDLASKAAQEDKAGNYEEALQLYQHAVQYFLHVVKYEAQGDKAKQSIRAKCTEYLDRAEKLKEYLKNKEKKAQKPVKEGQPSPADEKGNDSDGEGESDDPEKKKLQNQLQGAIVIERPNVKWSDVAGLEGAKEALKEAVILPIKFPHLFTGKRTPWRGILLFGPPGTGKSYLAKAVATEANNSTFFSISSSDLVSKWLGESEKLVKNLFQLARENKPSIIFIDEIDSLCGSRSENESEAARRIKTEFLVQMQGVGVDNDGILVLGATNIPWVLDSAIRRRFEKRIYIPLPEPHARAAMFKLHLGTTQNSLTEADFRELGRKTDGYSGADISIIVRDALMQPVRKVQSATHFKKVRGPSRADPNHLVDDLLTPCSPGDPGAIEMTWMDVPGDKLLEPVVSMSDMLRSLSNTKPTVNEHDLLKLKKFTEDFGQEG
# Chain of UniProt Q92945 (Q92945 whole entry): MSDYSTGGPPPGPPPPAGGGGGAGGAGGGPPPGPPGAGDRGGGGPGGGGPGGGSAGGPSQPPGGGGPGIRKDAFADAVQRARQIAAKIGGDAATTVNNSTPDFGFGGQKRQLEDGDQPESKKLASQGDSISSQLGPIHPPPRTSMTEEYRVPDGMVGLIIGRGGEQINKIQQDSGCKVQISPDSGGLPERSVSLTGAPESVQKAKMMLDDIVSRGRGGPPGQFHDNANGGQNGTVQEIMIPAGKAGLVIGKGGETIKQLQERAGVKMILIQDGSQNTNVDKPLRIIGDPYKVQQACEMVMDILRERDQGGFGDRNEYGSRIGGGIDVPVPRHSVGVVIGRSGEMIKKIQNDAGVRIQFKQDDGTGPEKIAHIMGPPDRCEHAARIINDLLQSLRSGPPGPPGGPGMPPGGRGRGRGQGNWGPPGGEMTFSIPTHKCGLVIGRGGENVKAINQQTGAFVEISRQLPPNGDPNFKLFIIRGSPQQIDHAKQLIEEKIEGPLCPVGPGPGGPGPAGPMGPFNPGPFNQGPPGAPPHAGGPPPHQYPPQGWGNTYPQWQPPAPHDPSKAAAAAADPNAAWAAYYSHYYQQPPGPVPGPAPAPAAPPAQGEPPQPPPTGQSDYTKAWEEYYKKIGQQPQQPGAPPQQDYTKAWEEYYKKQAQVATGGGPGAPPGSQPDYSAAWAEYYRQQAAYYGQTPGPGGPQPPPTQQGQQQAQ
# Chain of UniProt O43583 (O43583 whole entry): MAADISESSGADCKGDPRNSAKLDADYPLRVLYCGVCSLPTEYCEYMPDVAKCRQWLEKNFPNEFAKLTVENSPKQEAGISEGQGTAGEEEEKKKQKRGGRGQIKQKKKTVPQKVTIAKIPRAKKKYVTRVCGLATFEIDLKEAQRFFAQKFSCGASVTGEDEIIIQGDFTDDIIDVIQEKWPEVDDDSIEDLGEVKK
# Chain of UniProt Q06330 (Q06330 whole entry, looked up): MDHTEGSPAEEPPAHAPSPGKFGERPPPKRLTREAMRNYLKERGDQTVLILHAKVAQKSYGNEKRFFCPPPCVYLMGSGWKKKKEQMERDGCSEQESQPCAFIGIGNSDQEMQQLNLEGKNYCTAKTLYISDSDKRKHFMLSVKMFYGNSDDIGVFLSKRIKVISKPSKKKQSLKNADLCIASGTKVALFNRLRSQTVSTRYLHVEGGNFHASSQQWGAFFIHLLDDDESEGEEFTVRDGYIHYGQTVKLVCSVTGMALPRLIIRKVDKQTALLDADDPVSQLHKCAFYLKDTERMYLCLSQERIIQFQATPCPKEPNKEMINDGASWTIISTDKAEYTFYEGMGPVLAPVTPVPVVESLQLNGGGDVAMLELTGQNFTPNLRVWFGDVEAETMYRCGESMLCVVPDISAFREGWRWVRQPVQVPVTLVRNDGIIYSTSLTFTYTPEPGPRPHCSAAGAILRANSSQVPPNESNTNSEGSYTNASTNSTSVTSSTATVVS
# Chain of UniProt P10109 (P10109 whole entry): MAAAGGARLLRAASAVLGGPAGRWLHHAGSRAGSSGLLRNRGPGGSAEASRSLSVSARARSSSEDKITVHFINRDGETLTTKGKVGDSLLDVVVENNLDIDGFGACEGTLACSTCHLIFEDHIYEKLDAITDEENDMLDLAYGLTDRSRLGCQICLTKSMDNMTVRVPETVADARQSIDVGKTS
# Chain of UniProt Q96P48 (Q96P48 whole entry): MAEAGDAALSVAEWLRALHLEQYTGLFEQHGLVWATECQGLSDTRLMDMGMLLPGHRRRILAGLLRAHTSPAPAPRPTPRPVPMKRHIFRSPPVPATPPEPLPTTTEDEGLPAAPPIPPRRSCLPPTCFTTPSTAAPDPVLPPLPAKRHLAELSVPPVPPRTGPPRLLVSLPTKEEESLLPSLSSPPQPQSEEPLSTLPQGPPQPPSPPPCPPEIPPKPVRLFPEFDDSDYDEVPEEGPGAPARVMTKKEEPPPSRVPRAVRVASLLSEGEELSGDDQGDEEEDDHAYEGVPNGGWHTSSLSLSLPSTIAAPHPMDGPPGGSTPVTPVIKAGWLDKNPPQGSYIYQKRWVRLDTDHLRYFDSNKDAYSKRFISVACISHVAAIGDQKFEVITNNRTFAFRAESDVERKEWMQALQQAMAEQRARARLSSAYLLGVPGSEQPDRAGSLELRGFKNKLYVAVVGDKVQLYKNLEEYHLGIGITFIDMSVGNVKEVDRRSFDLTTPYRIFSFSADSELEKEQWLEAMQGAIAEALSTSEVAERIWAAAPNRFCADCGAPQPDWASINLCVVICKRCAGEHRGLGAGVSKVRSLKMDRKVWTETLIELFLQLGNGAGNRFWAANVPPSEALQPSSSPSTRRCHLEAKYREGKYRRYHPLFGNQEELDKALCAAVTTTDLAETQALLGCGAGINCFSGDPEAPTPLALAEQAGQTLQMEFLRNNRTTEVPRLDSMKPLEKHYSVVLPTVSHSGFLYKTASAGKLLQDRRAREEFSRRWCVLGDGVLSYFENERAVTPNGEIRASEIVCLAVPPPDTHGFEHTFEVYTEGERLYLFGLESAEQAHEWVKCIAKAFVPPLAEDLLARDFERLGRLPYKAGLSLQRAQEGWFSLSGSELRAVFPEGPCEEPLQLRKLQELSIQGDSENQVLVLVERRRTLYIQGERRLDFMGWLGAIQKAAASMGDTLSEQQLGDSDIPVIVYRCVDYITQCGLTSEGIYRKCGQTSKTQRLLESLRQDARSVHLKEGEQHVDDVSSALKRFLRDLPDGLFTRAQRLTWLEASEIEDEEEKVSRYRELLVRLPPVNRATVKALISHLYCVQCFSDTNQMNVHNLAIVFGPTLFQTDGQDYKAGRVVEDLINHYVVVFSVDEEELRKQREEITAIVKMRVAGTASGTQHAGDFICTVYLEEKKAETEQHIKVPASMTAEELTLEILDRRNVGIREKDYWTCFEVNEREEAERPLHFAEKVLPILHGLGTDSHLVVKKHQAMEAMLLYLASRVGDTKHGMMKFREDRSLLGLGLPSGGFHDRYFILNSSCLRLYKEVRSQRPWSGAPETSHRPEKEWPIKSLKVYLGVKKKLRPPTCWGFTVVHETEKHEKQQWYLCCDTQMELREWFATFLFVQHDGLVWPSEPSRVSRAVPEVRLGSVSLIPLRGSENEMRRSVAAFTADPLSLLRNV
# Chain of UniProt Q8WUB8 (Q8WUB8 whole entry): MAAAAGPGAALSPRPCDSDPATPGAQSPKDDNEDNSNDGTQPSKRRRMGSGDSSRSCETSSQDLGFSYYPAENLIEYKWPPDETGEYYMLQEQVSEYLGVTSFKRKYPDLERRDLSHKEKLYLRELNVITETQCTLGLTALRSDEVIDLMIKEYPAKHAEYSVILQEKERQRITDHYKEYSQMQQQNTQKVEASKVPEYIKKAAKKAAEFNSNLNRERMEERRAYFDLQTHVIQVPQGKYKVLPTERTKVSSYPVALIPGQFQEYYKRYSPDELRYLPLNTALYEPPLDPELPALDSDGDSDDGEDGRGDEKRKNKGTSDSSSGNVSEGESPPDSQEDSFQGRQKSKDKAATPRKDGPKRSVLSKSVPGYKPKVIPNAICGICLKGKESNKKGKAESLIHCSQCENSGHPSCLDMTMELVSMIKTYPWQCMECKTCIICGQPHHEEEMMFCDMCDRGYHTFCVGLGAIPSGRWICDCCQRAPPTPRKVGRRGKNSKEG
Target,thermal stability z-score (lipoamide; [1]),thermal stability z-score (lipoamide; arsenate co-treatment: none),thermal stability z-score (potassium arsenate)
ATP6V0A2 (UniProt Q9Y487),-0.105,0.146,-0.424
BLOC1S1 (UniProt P78537),-0.0484,0.202,-0.255
RFC1 (UniProt P35251),-0.248,1.77,-0.0625
CARS2 (UniProt Q9HA77),-0.273,-0.517,-1.39
CCDC117 (UniProt Q8IWD4),-0.191,-0.317,-0.388
CAST (UniProt P20810),0.525,0.428,0.122
SCARB2 (UniProt Q14108),0.111,0.346,0.368
MRPS6 (UniProt P82932),-0.216,-0.13,-0.516
NSF (UniProt P46459),-0.331,-0.0542,0.232
ORC4 (UniProt O43929),-0.121,-0.0936,-0.113
NDE1 (UniProt Q9NXR1),0.584,0.266,0.0354
CDC27 (UniProt P30260),0.122,0.0944,-0.522
PIP4K2A (UniProt P48426),0.195,0.103,-0.102
CEP192 (UniProt Q8TEP8),-0.251,-0.467,0.0297
AGPAT3 (UniProt Q9NRZ7),-0.336,0.305,-0.114
TRMT6 (UniProt Q9UJA5),0.481,0.683,0.0561
MKRN2 (UniProt Q9H000),0.303,0.829,-0.0571
ZNRF2 (UniProt Q8NHG8),-0.729,-0.885,-2.6
NAA15 (UniProt Q9BXJ9),0.838,0.593,0.812
RBPJ (UniProt Q06330),0.252,-0.0841,-0.676
C2CD5 (UniProt Q86YS7),0.332,0.297,-0.133
DDX49 (UniProt Q9Y6V7),-0.368,-0.359,-0.153
FDX1 (UniProt P10109),-0.234,-0.162,-0.0279
SF3B2 (UniProt Q13435),0.498,0.403,-0.135

Target,thermal stability z-score (lipoamide; [1]),thermal stability z-score (lipoamide; arsenate co-treatment: none),thermal stability z-score (potassium arsenate)
MRPS18B (UniProt Q9Y676),0.319,0.013,0.102
SLC19A1 (UniProt P41440),-0.381,-0.505,0.0431
MPHOSPH10 (UniProt O00566),0.544,0.827,0.849
ARAP1 (UniProt Q96P48),-0.133,-0.0899,-0.345
RER1 (UniProt O15258),0.802,0.615,0.934
EEF2KMT (UniProt Q96G04),0.0521,0.046,0.0729
PHF10 (UniProt Q8WUB8),-0.191,-0.061,-0.359
CLEC16A (UniProt Q2KHT3),0.0777,-0.0307,-0.437
DENR (UniProt O43583),0.109,-0.188,-0.702
PUS3 (UniProt Q9BZE2),0.378,-0.095,2.26
SLC25A13 (UniProt Q9UJS0),-0.445,-0.77,-0.312
CMSS1 (UniProt Q9BQ75),0.27,0.0303,-2.12
TOMM70 (UniProt O94826),-0.0648,0.115,-0.0776
CFAP97 (UniProt Q9P2B7),-1,-0.518,-0.864
DCTN3 (UniProt O75935),0.0144,0.489,0.72
VPS4B (UniProt O75351),0.854,0.498,0.314
HARS (UniProt P12081),-0.0978,-0.228,1.38
TMEM63B (UniProt Q5T3F8),-0.865,-0.374,-0.606
VGLL4 (UniProt Q14135),-0.0828,0.229,-1.46
RPS6KA4 (UniProt O75676),-0.327,-0.0905,0.0157
KBTBD6 (UniProt Q86V97),-0.502,0.182,-1.11
WDR34 (UniProt Q96EX3),-0.251,-0.215,-0.776
NADK (UniProt O95544),0.88,0.314,-0.183
SHROOM1 (UniProt Q2M3G4),-0.159,-0.157,0.508

Target,thermal stability z-score (lipoamide; [1]),thermal stability z-score (lipoamide; arsenate co-treatment: none),thermal stability z-score (potassium arsenate)
MED27 (UniProt Q6P2C8),-0.0367,0.069,0.0267
IQGAP2 (UniProt Q13576),-0.121,-0.159,-0.209
CUEDC2 (UniProt Q9H467),-0.0601,-0.131,0.0094
PRELID3B (UniProt Q9Y3B1),-0.72,-0.844,-0.684
ABR (UniProt Q12979),-0.754,-0.915,-0.555
OSMR (UniProt Q99650),-1.48,-0.64,1.55
MED1 (UniProt Q15648),0.948,0.662,0.125
C17ORF80 (UniProt Q9BSJ5),-1.48,-1.08,-0.529
KHSRP (UniProt Q92945),0.21,0.161,0.486
ACSL1 (UniProt P33121),0.922,0.82,0.682
COX11 (UniProt Q9Y6N1),0.0437,-0.0617,0.0514
ZNHIT2 (UniProt Q9UHR6),-0.047,0.147,-0.28
TTC19 (UniProt Q6DKK2),0.927,0.897,-1.29
SLC25A19 (UniProt Q9HC21),-0.0932,0.281,-0.374
ATRX (UniProt P46100),-0.0326,0.195,-0.0925
CEPT1 (UniProt Q9Y6K0),0.685,0.4,0.959
DNAJB12 (UniProt Q9NXW2),-0.267,-0.124,0.182
STAT6 (UniProt P42226),0.0546,-0.269,0.472
GRB10 (UniProt Q13322),-0.159,-0.12,-0.636
L1CAM (UniProt P32004),0.0694,-0.375,-0.0837
HPRT1 (UniProt P00492),0.468,0.716,0.0837
NEK6 (UniProt Q9HC98),-0.181,-0.266,-0.209
GCSH (UniProt P23434),0.134,-0.126,-1.45
